The source of these data is patent publication US6825340B2, “Methods and reagents for inactivating ribonucleases” (Ambion, Inc., priority 1998, dated 2004).

Experiment [1] deals with T1, RNase A (Bos taurus, UniProt P61823).
T1 sequence (P61823 27-150): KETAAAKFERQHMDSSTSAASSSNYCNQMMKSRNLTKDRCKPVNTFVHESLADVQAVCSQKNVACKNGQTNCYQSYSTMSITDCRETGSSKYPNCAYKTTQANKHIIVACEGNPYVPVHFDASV
Nature of the experiment: RNase A inactivation, mouse total RNA on agarose formaldehyde gel. The experiment is classed as biochemical. How it is done:
The non-isotopic assay uses total RNA isolated from mouse as the substrate for the RNase mixture. […] A quantity of 4 μg of total RNA isolated from mouse liver or brain was dissolved in an aqueous solution, usually water or 1 mM sodium citrate (pH 6.6). The treated ribonuclease sample was added to the total RNA and then incubated at 37° C. for 1 or 16 hours, depending on the sensitivity desired for the assay. After incubation, the RNA was fractionated in a formaldehyde 1% agarose gel. The RNA was detected by staining with ethidium bromide and then illuminating the gel with ultraviolet light. The RNA fluoresces in the gel. Untreated total RNA was also fractionated as a control with the test samples for comparative purposes. […] Intact total RNA has two major bands produced by the 28S and 18S ribosomal RNA. […] RNase A, at 200 ng/ml instead of 10 μg/ml, was treated with or without 4 mM DTT in Boshes' solution A at 4° C. for 20 minutes. RNase A activity was then tested by incubating mouse liver total RNA with the treated RNase A at 37° C. for 60 minutes. The mouse RNA was then fractionated by electrophoresis in a 1% agarose formaldehyde gel. […] RNase A was diluted to 154 ng/ml in 1 mM sodium citrate (pH 6.4) or in Boshes' (1970) buffer A. DTT was added to the samples to 4 mM or 20 mM and then incubated at 4° C. or 60° C. for 20 minutes.

In experiment [2] the test system is AMV reverse transcriptase. Nature of the experiment: Reverse transcription reaction (RETROscript kit), dCTP[α-32P] incorporation. The experiment is classed as biochemical. Particulars: 20 mM reducing reagent. How it is done: (§1) FIG. 2. […] Reverse transcriptions were performed using the RETROscript™ kit (Ambion, Inc.). Mouse total RNA in DEPC-treated water was reverse transcribed with either MMLV or AMV reverse transcriptase in the presence or absence of 20 mM DTT. dCTP[α^32P] was included in the reactions to measure the efficiency of reverse transcription. Following incubation at 42° C. for 1 h, 5 μl of each reaction was subjected to TCA precipitation to measure the amount of dCTP[α^32P] incorporated into cDNA by reverse transcription.
(§2) The reverse transcription reactions were performed using the RETROscript™ kit (Ambion, Inc.). The following were assembled with or without 20 mM of the reducing reagents in a final volume of 19 μl: dNTPs (0.5 mM each), oligo dT (5 μM), 0.4 μl dCTP[α-^32p] (3000 Ci/mmol), 10 mM Tris-HCl (pH 8.3): 50 mM KCl: 1.5 mM MgCl2, mouse brain total RNA (4 μg). The reaction mixtures were incubated at 65° C. for 10 minutes. 1 μl (100 units) of AMV or MMLV reverse transcriptase were added and then the reactions were incubated at 42° C. for 1 hour. Reverse transcription by either enzyme was not inhibited by DTT (FIG. 2) or by DTE or β-mercaptoethanol.

Experiment [3] has as its target T2, MMLV reverse transcriptase (Moloney murine leukemia virus, UniProt P03355).
T2 construct: purchased Ambion, Inc
The experiment is described as above. Particulars: 20 mM reducing reagent. The experiment is classed as biochemical. How it is done:
as §1, §2

For experiment [4], the system named is unknown RNase in alkaline phosphatase storage solution. Put plainly: Isotopic assay of RNase activity in alkaline phosphatase storage solution. The experiment is classed as biochemical. Particulars: 60° C. for 20 minutes. How it is done: The isotopic RNase assay uses a radioactive RNA synthesized by in vitro transcription as the RNA substrate. The RNA used in the following examples was 1.9 or 4.0 kb in length. The radioactive RNA was synthesized using a T7 MEGAscript™ transcription kit (Ambion, Inc.). The in vitro transcription reaction mixture contained 1.0 μg of linearized DNA template, 2 μl of 10× transcription buffer, 1 μl of UTP[α-^32P] (800 Ci/mmol), 2 μl of each 75 mM ribonucleotide and 2 μl of the T7 RNA polymerase mix, final volume of 20 μl. The reaction was incubated at 37° C. for 3 hours. The transcript was precipitated with 7.5 M LiCl and resuspended in 0.1 ml of 1 mM sodium citrate (pH 6.6) or RNase free water.
2 μl of the RNA probe was incubated with the test sample in a final volume of 10 μl for about 16 hours at 37° C. After incubation, the RNA was fractionated in a denaturing 6 M urea 5% acrylamide gel and then the gel was exposed to x-ray film. Untreated RNA was also fractionated as a control with the test samples for comparative purposes. […] RNase activity was indicated by the intensity of the RNA decreasing and by the appearance of smearing below the intact RNA. […]
A commercial solution of unknown composition to the inventors designed to stabilize the storage of alkaline phosphatase was detected to have RNase activity using the isotopic assay. […]

Experiment [5] concerns the target T1, RNase A. Particulars: RNase A 10 μg/ml; 4 mM DTT; 4° C. for 20 minutes; cited from earlier work.

“Also recorded” adds a separate entry of the source.

For the compound `O[C@H](CS)[C@H](O)CS` [DTT, dithiothreitol], the “RNase A inactivation” value in experiment [1] (RNase A 154 ng/ml, 4 mM DTT, 4° C. for 20 minutes) is recorded as “not inactivated”; in experiment [1] (RNase A 154 ng/ml, 4 mM DTT, 60° C. for 20 minutes) it was “completely inactivated”; in experiment [1] (RNase A 154 ng/ml, 20 mM DTT, 4° C. for 20 minutes), “not inactivated”; in experiment [1] (RNase A 154 ng/ml, 20 mM DTT, 60° C. for 20 minutes) it was “completely inactivated”; in experiment [1] (RNase A 200 ng/ml, 4 mM DTT, Boshes' solution A, 4° C. for 20 minutes), “not inactivated”; in experiment [1] (RNase A, 20 mM DTT, 60° C. for 20 minutes), “completely inactivated”. The “inhibition of reverse transcription by AMV reverse transcriptase” value in experiment [2] is on record as “does not inhibit; also recorded: not inhibited”. Further, in experiment [3], the “inhibition of reverse transcription by MMLV reverse transcriptase” value is “does not inhibit; also recorded: not inhibited”. The “RNase activity of alkaline phosphatase storage solution” value in experiment [4] (2 mM DTT) and in experiment [4] (5 mM DTT) was “no detectable RNase activity” throughout. Also, the “RNase A activity (Boshes, 1970)” value in experiment [5] is listed as “inhibited”.
